Data as given in patent US10561670B2, “Compositions comprising acidic extracts of mastic gum” (REGENERA PHARMA LTD., priority 2010, dated 2020).

System: rat MCAO model
Test: Rat MCAO stroke model, adhesive removal test
Format: in vivo
Conditions: for Time to remove the adhesive tape from the contralateral paw: day 27, subcutaneous 25 microliters twice a week, each compound 0.65% (w/w) in cottonseed oil, versus vehicle and base line (FIG. 14A)
Source text: For the experiments described herein, the animals are anesthetized using ketamine/xylazine solution. The animal's neck is then shaved and a midline incision is made in the skin of the neck, and the tissue underneath is bluntly dissected. The right common carotid artery (CCA) and its junction with the external carotid artery (ECA) and internal carotid artery (ICA) are exposed by blunt dissection. The CCA is then transiently closed by positioning around it a 3-0 silk suture material. The ECA is permanently occluded with the same type of suture material. A third closure, transient, is also done in the ICA with 3-0 silk suture material.
A small hole is cut in the ECA and the nylon thread is inserted into the ICA while avoiding entrance into the pterygopalatine artery. The thread is inserted 21-25 mm until a slight resistance is felt. Then a 3-0 silk suture knot secures the thread.
Following surgery, the rats are returned to their cages and remain under a heating lamp until they awake.
Two parameters are monitored and recorded during the ischemic surgery procedure: animal's core temperature and blood glucose level (BGL).
Core temperature is monitored using rectal probe (YSI USA model 400) connected to a measuring unit (Cole Parmer model 8402-00) during the entire surgery period. Ischemic insult is started when rectal temperature is 37-38° C.
The rats of the different groups were injected twice a week subcutaneous with 25 microliters of designated test item. First injection was given three hours after stroke induction.
• Vehicle: cottonseed oil • IMDA: 0.65% (w/w) in cottonseed oil • MDA: 0.65% (w/w) in cottonseed oil • IMDA and MDA: each 0.65% (w/w) in cottonseed oil • IMDA, MDA and OA: each 0.65% (w/w) in cottonseed oil MDA alone; IMDA alone; a combination of MDA+IMDA; and a combination of OA+MDA+IMDA, were tested using a rat MCAO model, for their therapeutic capacity. Stroke induced rats were treated with each of the tested compounds and the improvement of their sensorimotor abilities were tested using the adhesive removal test. […] The time to remove the tape is recorded. […]

| Structure (SMILES) | Time to remove the adhesive tape from the contralateral paw | Baseline fold change, removal of adhesive tape from the contralateral paw (day 27 relative to base line score (FIG. 14B)) [fold] |
| --- | --- | --- |
| CC(=CCCC(C)C1CCC2(C)C3=C(CCC12C)C1(C)CCC(=O)C(C)(C)C1CC3)C(=O)O (stereo not drawn) [IMDA, Isomasticadienoic acid] | able to improve the score of treated rats | 10 |
| C/C(=C\CC[C@H](C)[C@@H]1CC[C@]2(C)C3=CC[C@H]4C(C)(C)C(=O)CC[C@]4(C)[C@H]3CC[C@@]12C)C(=O)O [MDA, Masticadienoic acid] | only slightly better than the vehicle control | – |
